Measured values as given in the Kinase Knowledgebase extract (Sharma et al. 2016).

Target: MAPK14 (human) (UniProt Q16539)
Assay: Inhibition of LPS Stimulated TNF Production by U937 Cells
Details: for inhibition: concentration not given here

Sequence of MAPK14 (human) (Q16539 whole entry, looked up): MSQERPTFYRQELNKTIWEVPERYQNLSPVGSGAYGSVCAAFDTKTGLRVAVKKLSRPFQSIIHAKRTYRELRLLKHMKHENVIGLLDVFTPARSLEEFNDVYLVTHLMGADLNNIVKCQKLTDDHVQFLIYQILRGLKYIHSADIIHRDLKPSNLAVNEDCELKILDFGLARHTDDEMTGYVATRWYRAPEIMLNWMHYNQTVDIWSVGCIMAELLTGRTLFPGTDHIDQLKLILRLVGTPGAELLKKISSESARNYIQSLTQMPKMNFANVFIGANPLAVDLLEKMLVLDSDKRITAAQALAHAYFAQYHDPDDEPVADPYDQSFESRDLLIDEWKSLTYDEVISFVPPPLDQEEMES

inhibition	IC50	SMILES
29%		O=C(NCc1[nH]nc(-c2ccc(F)cc2)c1-c1ccncc1)c1cccc(C(F)(F)F)c1F
14%		COc1cccc(CC(=O)N[C@@H](C)c2[nH]nc(-c3ccc(F)cc3)c2-c2ccncc2)c1
45%		C[C@H](NC(=O)c1ccc(F)cc1F)c1[nH]nc(-c2ccc(F)cc2)c1-c1ccncc1
	77 nM	Fc1ccc(-c2[nH]nc(-c3ccccc3)c2-c2ccncc2)cc1
28%		C[C@@H](NC(=O)N[C@H](C)c1[nH]nc(-c2ccc(F)cc2)c1-c1ccncc1)c1ccccc1
83%		C[C@@H](NC(=O)c1c(F)cccc1F)c1[nH]nc(-c2ccc(F)cc2)c1-c1ccncc1
17%		CC(=O)OC(C)(C)C(=O)N[C@H](C)c1[nH]nc(-c2ccc(F)cc2)c1-c1ccncc1
55%		C[C@H](NS(=O)(=O)c1ccccc1C(F)(F)F)c1[nH]nc(-c2ccc(F)cc2)c1-c1ccncc1
74%		C[C@H](NS(=O)(=O)c1cn(C)cn1)c1[nH]nc(-c2ccc(F)cc2)c1-c1ccncc1
80%		C[C@@H](NS(=O)(=O)c1ccccc1Br)c1[nH]nc(-c2ccc(F)cc2)c1-c1ccncc1
32%		CC(C)COC(=O)N[C@H](C)c1[nH]nc(-c2ccc(F)cc2)c1-c1ccncc1
92%		C[C@H](NS(=O)(=O)c1ccc(-c2ccccn2)s1)c1[nH]nc(-c2ccc(F)cc2)c1-c1ccncc1
39%	2710 nM	O=C(NCCc1[nH]nc(-c2ccc(F)cc2)c1-c1ccncc1)Nc1ccc(F)cc1
52%		C[C@@H](NC(=O)c1cccc(F)c1)c1[nH]nc(-c2ccc(F)cc2)c1-c1ccncc1
68%		C[C@@H](NS(=O)(=O)c1ccc(-c2ccccn2)s1)c1[nH]nc(-c2ccc(F)cc2)c1-c1ccncc1
16%		O=C(NCc1[nH]nc(-c2ccc(F)cc2)c1-c1ccncc1)c1cccnc1
55%		CCCNC(=O)N[C@H](C)c1[nH]nc(-c2ccc(F)cc2)c1-c1ccncc1
24%		O=C(NCc1[nH]nc(-c2ccc(F)cc2)c1-c1ccncc1)c1ccc(C(F)(F)F)cc1

The remaining lines, values behind:

SMILES	inhibition	IC50
CC(C)COC(=O)NCc1[nH]nc(-c2ccc(F)cc2)c1-c1ccncc1		720 nM
CC(=O)O[C@@H](C)C(=O)NCc1[nH]nc(-c2ccc(F)cc2)c1-c1ccncc1		6510 nM
Cc1n[nH]c(-c2ccccc2)c1-c1ccncc1		578 nM
FC(F)(F)c1cccc(-c2n[nH]cc2-c2ccncc2)c1		87 nM
Cc1ccccc1S(=O)(=O)NCc1[nH]nc(-c2ccc(F)cc2)c1-c1ccncc1	24%	
CN(C)CCn1cc(-c2ccnc(NCc3ccc(F)cc3)c2)c(-c2ccc(F)cc2)n1		920 nM
CN(C)CCn1cc(-c2ccnc(N(C)C)c2)c(-c2ccc(F)cc2)n1		> 10000 nM
Cc1[nH]nc(-c2ccc(Cl)cc2)c1-c1ccncc1		201 nM
O=C(N[C@H](Cc1ccccc1)c1[nH]nc(-c2ccc(F)cc2)c1-c1ccncc1)c1ccccc1C(F)(F)F	25%	> 1000 nM
CCN(CC)CCn1cc(-c2ccnc(F)c2)c(-c2ccc(F)cc2)n1		2300 nM
O=C(NCc1[nH]nc(-c2ccc(F)cc2)c1-c1ccncc1)Nc1ccccc1OC(F)(F)F	25%	
CN(C(=O)N[C@@H](Cc1ccccc1)c1[nH]nc(-c2ccc(F)cc2)c1-c1ccncc1)c1ccccc1		< 1000 nM
Cc1nn(C)c(-c2ccc(Cl)cc2)c1-c1ccncc1		2700 nM
Cc1ccc(-c2n[nH]c(C)c2-c2ccncc2)cc1		274 nM
O=S(=O)(c1cccc(Cl)c1)N1CCC(c2[nH]nc(-c3ccc(F)cc3)c2-c2ccncc2)CC1	31%	
Cc1n[nH]c(-c2ccc(N(C)C)cc2)c1-c1ccncc1		99 nM
O=S(=O)(c1c(F)cccc1F)N1CCC(c2[nH]nc(-c3ccc(F)cc3)c2-c2ccncc2)CC1	8%	
CS(=O)(=O)NCc1[nH]nc(-c2ccc(F)cc2)c1-c1ccncc1		5000 nM
COc1ccc(CC(=O)N[C@H](Cc2ccccc2)c2[nH]nc(-c3ccc(F)cc3)c2-c2ccncc2)cc1		> 1000 nM
Cc1n[nH]c(-c2ccc(F)c(F)c2)c1-c1ccncc1		329 nM
